The values that follow come from a melting point compilation (Tetko et al.; mined from patent text by program, amines drawn as free bases though some values may be those of a salt).

Bounds are passed on as bounds.

`O=C(O)COc1ccc(SCc2ccc(OCc3ccc(Cl)c(C(F)(F)F)c3)cc2)c2c1CCC2`: the melting point (usually the temperature, or range, at which the solid turns liquid) was 151 to 152 °C.
Compound `CC(CO)(CO)C(=O)N1CCOCC1` had a melting point of 95 to 97 °C.
For `CCCC(CCC)Nc1cc(C)nc(Cl)c1N`, the melting point lay within 139 to 140 °C.
`Cc1ccc(S(=O)(=O)OCCCC2(C)NC(=O)NC2=O)cc1` (configuration not stated) gave a melting point of 126 to 127 °C.
Next, `Cn1c2c(cnc3ccccc32)c(=O)n1-c1ccc(Cl)cc1`: 158 to 161 °C; `CN1CCSC1=NC(=Nc1ccccc1)N1CCCC1`: 160 to 162 °C.
For the compound `C=CC(=O)c1cnc(N2CCC[C@H]2CO)nc1NCc1ccc(OC)c(Cl)c1`, the melting point was 113 to 115 °C.
`COc1ccccc1-c1cc(S(=O)(=O)c2ccc(N)cc2)cc(N2CCCC2)n1` returned a melting point of 217 to 219 °C.
In turn, `COc1cccc2c3c(n(C)c12)SCCC3=O` had a melting point of 106 to 108 °C.
`CC(C)CC(=O)N[C@H]1CC[C@H](CCN2CCN(c3nccc4c3OCC4)CC2)CC1` registered a melting point of 187 °C.
Compound `CCOC(=O)c1cn(C2CC2)c2cc(NCCO)c(F)cc2c1=O` had a melting point of 228 to 230 °C.
`CC(=O)OC(c1ccccc1F)c1scnc1C` (configuration not stated) returned a melting point of 53 to 56 °C.
Next, `CCCCC1(N2CCCC2)CC=C(c2[nH]c3ccccc3c2CCc2ccncc2)CC1` (configuration not stated): 187 to 195 °C.
Regarding `COC(c1ccccc1)C(C)O` (configuration not stated), the melting point lay in the range of 104 to 106 °C.
On to `CCCc1c(OCC(O)CSc2ccc(C(=O)CCC(=O)O)cc2)ccc(C(C)=O)c1O` (configuration not stated), for which the melting point is 115 to 116 °C.
`Cc1cnc2c(NC(=O)c3c(Cl)cccc3Cl)cccc2c1-n1ccc(=O)cc1` showed a melting point of 280 to 282 °C.
`COc1ccc(-c2cc(=O)c3cccnc3o2)cc1` gave a melting point of 269 to 270 °C.
The compound `N#Cc1cccc(CN2CCc3cc(Cl)ccc32)c1` gave a melting point of 73.5 to 75.5 °C.
Consider `CC(=O)OC1CSC(Oc2ccncc2)C(OC(C)=O)C1OC(C)=O` (configuration not stated), for which the melting point was in the range of 152 to 158 °C.
In turn, `CC(C)(C)OC(=O)N[C@H](Cc1ccc(C(F)(F)F)cc1)[C@@H](O)c1ccncc1` (racemic) came in with a melting point of 198 to 200 °C.
Regarding `CN(C)C1(c2ccccc2)CCC2(CC1)NCCc1c2[nH]c2ccccc12` (configuration not stated), the melting point fell in the range of 214 to 218 °C.
`Nc1ccc2c(c1Br)C(=O)CCC2`: the melting point was in the range of 93 to 96 °C.
In turn, `CC(=O)SCCCCC(=O)c1cccnc1` had a melting point of 43 °C.
For `COc1ccc(CC(=O)NC2CCN(Cc3ccccc3)CC2)cc1`, the melting point was 171 to 173 °C.
With `O=C(O)c1cc(N2C(=O)C(c3ccccc3)=C(c3ccccc3)C2=O)ccc1O`, the melting point was 249 to 250 °C.
Compound `COc1ccc(CC2SC(=O)NC2=O)cc1C(=O)NCc1ccc(C(F)(F)F)cc1` (configuration not stated) showed a melting point of 176 to 178 °C.
`CCCOc1nc(N)c2ncn(C3CCCCC3)c2n1` yielded a melting point of 146 to 148 °C.
Regarding `CN1C(=O)[C@@H](CN2CCCCC2)C[C@H]1c1ccc(-c2ccccc2Cl)s1`, the melting point lay within 73 to 75 °C.
Next, `N#CCC(=O)c1ccc(Br)cc1`: 164 °C; `COc1ccc(-c2[nH]nc3c2C(=O)c2c(NC(=O)Cc4cccc(OC)c4)cccc2-3)cc1`: more than 300 °C.
As to `Cn1c(Cc2ccccc2)noc1=O`, the melting point was in the range of 105 to 107 °C.
Take `COc1cc2[nH]c(N(C)Cc3cccc(N)c3)nc(=O)c2c(C)c1OC`: the melting point was 268 to 270 °C.
The value for `CC(=O)c1ccc(NC(=O)Nc2cc(C(C)=O)cc(C(C)=O)c2)cc1` was 251 to 252 °C.
`CNC(=O)n1cnc(C(=O)NC(C)(C)C)c1N` came in with a melting point of 145 to 147 °C.
Compound `CCCCOc1ccc(-c2nc(-c3ccccc3Cl)nn2C)c(Cl)c1` registered a melting point of 60 to 62 °C.
`CC1(C)C(=O)C(C(=O)c2ccc(C(F)(F)F)nc2CBr)=C(Cl)C(C)(C)C1=O` came in with a melting point of 94.5 to 95 °C.
`Cc1cc(Cc2cnc(N[N+](=O)[O-])[nH]c2=O)cnc1C`: the melting point was 212 to 213 °C.
Compound `CC(C)(C)OC(=O)C=Cc1ccc(C[C@H](NC(=O)OC(C)(C)C)C(=O)OC(c2ccccc2)c2ccccc2)cc1` displayed a melting point of 135 to 137 °C.
Take `COc1cc(NC(SC)=C(C#N)S(=O)(=O)c2ccc(Cl)cc2)cc(OC)c1`: the melting point was 120 to 123 °C.
`COc1cccc2c1N(S(=O)(=O)c1ccc(-c3ccc(F)cc3F)cc1)C(C(=O)NCCOc1ccc(C(=O)O)cc1)C2` (configuration not stated) displayed a melting point of 234 °C.
Turning to `Oc1nsc(Cc2ccccc2)n1`, the melting point is 50 °C.
Next, `CCOC(C)O[C@H]1C(=O)N(C(=O)Oc2ccccc2)[C@H]1c1ccccc1` (some centres not stated): 50 to 52 °C.
`CCOC(=O)c1ccc(NCCOc2ccc3ccccc3c2)cc1` showed a melting point of 158 to 162 °C.
On to `CCCC1=C(Br)c2cc3c(cc2C1)OCO3`, for which the melting point was in the range of 96 to 97 °C.
The value for `Fc1ccc2[nH]cc(Cc3cccnc3)c2c1` was 109 to 112 °C; that for `COC(=O)c1c(C)c(-c2cccnc2)n2c1CSC2` was 91 °C; that for `CNS(=O)(=O)Oc1ccc2c(c1)C(C)(C)C(OC)O2` (configuration not stated) was 89 to 91 °C.
The value for `O=C(O)CCOCCCc1cccc(-c2nc(=O)c3ccccc3s2)n1` was 141 to 142 °C.
`CC1Nc2ccc(-c3ccc(F)c(Cl)c3)cc2C(C)(C)O1` (configuration not stated) came in with a melting point of 173 to 175 °C.
The value for `Oc1cc2onc(-c3ccccc3F)c2cc1Cl` was 180 to 182 °C.
For `Cc1cc(SC(=O)N(C)C)c(C(C)(C)C)cc1C=O`, the melting point lay within 107 to 108 °C.
In turn, `CC1(C)CCONC1=O` displayed a melting point of 115 to 119 °C.
`O=C(Cc1ccccc1)N[C@@H](Cc1ccc(OCCc2coc(-c3ccccc3)n2)cc1)C(=O)O`: the melting point is 146 to 151 °C.
The value for `COc1ccc(-n2nc3c4c([nH]cc-3c2=O)CCCC4)cc1` was 279 to 282 °C; that for `CCOC(=O)c1ncsc1-c1cc(F)cc(F)c1` was 112 to 113 °C.
`O=c1[nH]c2cc(Cl)ccc2c(=O)n1S(=O)(=O)c1c(Cl)cccc1Cl` registered a melting point of 260 to 261 °C.
The compound `CCOC(=O)c1ncsc1-c1cccc(OCc2cccc(C#N)c2)c1` came in with a melting point of 85 °C.
Consider `FC(F)(F)Oc1ccc(Nc2cc(N3CCOCC3)nc(-c3ccccc3)n2)cc1`, for which the melting point fell in the range of 144 to 146 °C.
The value for `CC1Cc2c(N3C(=O)C4CCCCN4C3=O)ccc(Cl)c2O1` (configuration not stated) was 145 to 148 °C; that for `Cc1cc(C2C3=C(CCS3)NC3=C2C(=O)CCC3)ccc1F` (configuration not stated) was more than 260 °C; that for `CCOC(=O)C1=C(COCCOc2ncccn2)NC(C)=C(C(=O)OC)C1c1ccccc1Cl` (configuration not stated) was 101 °C.
`COC(=O)C(C)(C)Cc1c(C(=O)c2ccc(Cl)cc2)c2ccc(OC(=O)c3ccc(Cl)cc3)cc2n1C` gave a melting point of 138 °C.
`C=C(C)C(=O)OCCNC(=O)OCCOc1ccccc1-c1ccccc1OCCOC(=O)NCCOC(=O)C(=C)C` displayed a melting point of 72 to 74 °C.
In turn, `O=C(Nc1ccc(F)cc1)c1cn2nc(N3CCN(C(=O)c4ccccc4C(F)(F)F)CC3)ccc2n1` came in with a melting point of 115 to 117 °C.
With `Cc1cc(-c2ccc(C#N)cc2)c(C#N)n1Cc1cnc(Cl)c(CO)c1`, the melting point was determined as 184 °C.
For the compound `ClCc1conc1-c1ccc(-c2ccccc2)cc1`, the melting point lay in the range of 102 to 103 °C.
Next, `CCCCCCCNC(=O)CCCCCCCSc1nc(-c2ccccc2)c(-c2ccccc2)[nH]1`: 119 to 120 °C; `CSc1nc2c(C)cccc2c2c1CCN2c1ccccc1C`: 111 to 113 °C; `Nc1cc2[nH]c(=O)c(=O)[nH]c2cc1[N+](=O)[O-]`: more than 330 °C.
In turn, `CCCCOCCOc1ccc(-c2ccc3c(c2)C=C(C(=O)O)CCN3CC2CCCCC2)cc1` came in with a melting point of 124 to 125 °C.
Next, `CCCCCS(=O)(=O)NC(=O)/C=C/c1ccc(OCCCOC)cc1Oc1ncc(C(F)(F)F)cc1Cl`: 116 to 118 °C; `COC1=C(C#N)C(c2ccccc2)=C2C(=O)N(C)C(c3ccccc3)=C12`: 210 to 212 °C; `CC(C)(C)c1cccc(C(C)(C)C)c1OS(C)(=O)=O`: 83 °C.
As for `CC(C)(C)c1ccc(C(=O)Nc2cn3nc(N)ccc3n2)cc1`, the melting point lay in the range of 267 to 268 °C.
For `CC(C)n1nc(-c2sc(C(=O)NCCc3ccccn3)nc2-c2ccccc2)ccc1=O`, the melting point fell in the range of 144 to 147 °C.
For the compound `CCCOc1c(OCc2ccccc2)cc(C2CCC(c3cc(OC)c(OC)c(OC)c3)O2)cc1S(=O)(=O)CC(C)O` (configuration not stated), the melting point was 103 to 110 °C.
The value for `COC(=O)c1ccc(NCCCCCCCCCCCCCCCCBr)cc1` was 92 to 93 °C; that for `CC(C)(CNc1nc(Cl)ncc1Cl)NS(C)(=O)=O` was 143 to 145 °C; that for `COC(=O)c1cnc(NC(C)C)nc1C` was 118 to 119 °C.
`CC(C)(C)N(Cc1ccccc1)CC(O)c1ccc(OCc2ccccc2)c(N)c1` (configuration not stated) displayed a melting point of 68 to 69 °C.
Next, `NC(=O)NC1CCCc2sccc21` (configuration not stated): 203 to 207 °C; `CC(=O)Nc1ccn(C2OC(COC(C)=O)CC2OC(C)=O)c(=O)n1` (configuration not stated): 174 to 177 °C; `O=C1CC(CO)N1C(c1ccccc1)c1ccccc1` (configuration not stated): 101 to 102 °C.
Next, `CC(=O)c1nn(-c2c(Cl)cc(C(F)(F)F)cc2Cl)cc1C1CC1(Br)Br` (configuration not stated): 150 °C.
The value for `CC(O)=C(C#N)C(=O)Nc1ccc(Br)cc1` was 213 to 214 °C.
`O=c1[nH]c(-c2csc3ccccc23)nc2ccc(N3CCOCC3)cc12` displayed a melting point of more than 300 °C.
With `COc1ccc2[nH]c(S(=O)Cc3ncc(C)c(N4CCCCC4)c3Cl)nc2c1` (configuration not stated), the melting point fell in the range of 151 to 152 °C.
The value for `C#Cc1cccc(NC(=O)C(Cl)Cl)c1` was 99 to 100 °C; that for `N#Cc1cc(Br)c(OC(=O)OCCl)c(Br)c1` was 83 to 85 °C; that for `CC1(C)CC(=O)c2c(ncc3[nH]c4cc(F)ccc4c23)C1` was 271 to 273 °C.
As to `CC(=O)c1c(-c2ccccc2)[nH]c(-c2ccncc2)c1C`, the melting point was 202 to 203 °C.
Turning to `COC(=O)C(F)=CC1C(C(=O)O)C1(C)C` (configuration not stated), the melting point was 89 °C.
